Strand notation (5' to 3'): a small letter for the sugar, then the base; units joined by * are phosphorothioate-linked, units joined directly phosphodiester-linked; [ ] holds rarer units or linkages, { } end groups; capitals alone tell only the bases. k = constrained ethyl (cEt); [5mC] = 5-methylcytosine; d = 2'-deoxy (DNA)
Each substance was assayed on human SMAD7 mRNA (assay: Antisense inhibition of human SMAD7 mRNA expression in Hep3B cells by 3-10-3 cEt gapmers, 10,000 nM, electroporation (Example 2)). Conditions: Hep3B cells, 10,000 nM antisense oligonucleotide, electroporation, approximately 24 hours, RT-PCR primer probe set RTS5062, relative to untreated control cells.
Assay type: cell-based
Protocol: Antisense oligonucleotides were designed to target human SMAD7 mRNA and were tested for their effects on SMAD7 mRNA expression in vitro. The antisense oligonucleotides were tested in a series of experiments that had similar culture conditions, as described below. ION 771576, described in the studies above and which is a 5-10-5 MOE gapmer, was also included in these assays. Cultured Hep3B cells at a density of 20,000 cells per well were transfected using electroporation with 10,000 nM antisense oligonucleotide. After a treatment period of approximately 24 hours, RNA was isolated from the cells and SMAD7 mRNA levels were measured by quantitative real-time PCR. Primer probe set RTS5062 was used to measure human SMAD7 mRNA levels. SMAD7 mRNA levels were adjusted according to total RNA content, as measured by RIBOGREEN®. Results are presented as percent inhibition of SMAD7 mRNA expression, relative to untreated control cells.
The newly designed chimeric antisense oligonucleotides in the Tables below were designed as 3-10-3 cEt gapmers. The gapmers are 16 nucleosides in length, wherein the central gap segment comprises often 2′-deoxynucleosides and is flanked by wing segments on the 5′ direction and the 3′ direction comprising three nucleosides each. Each nucleoside in the 5′ wing segment and each nucleoside in the 3′ wing segment has a cEt sugar modification. The internucleoside linkages throughout each gapmer are phosphorothioate (P═S) linkages. All cytosine residues throughout each gapmer are 5-methylcytosines.
“Start site” indicates the 5′-most nucleoside to which the gapmer is targeted in the human gene sequence. “Stop site” indicates the 3′-most nucleoside to which the gapmer is targeted human gene sequence. […] Some of the oligonucleotides presented were complementary to SMAD7 mRNA sequences RefSeqNo. NM_001190821.1 (designated herein as SEQ ID NO: 3) or RefSeqNo. NM_001190822.1 (designated herein as SEQ ID NO: 4), and are presented in a separate table shown below.

“790847 (kT*k[5mC]*kT*dT*dA*d[5mC]*dA*dA*dA*dG*dA*dG*dT*kT*kA*kT; antisense) [compound 790847]” was tested, and the “% Inhibition” value was 24%.

Same assay, conditions: Hep3B cells, electroporation with 10,000 nM antisense oligonucleotide, approximately 24 hours, RTS5062, percent inhibition of SMAD7 mRNA relative to untreated control cells

With “790715 (kT*kG*kT*d[5mC]*dA*d[5mC]*d[5mC]*d[5mC]*dG*dT*d[5mC]*dT*dG*kG*kG*k[5mC]; antisense) [compound 790715]” the “% Inhibition” value was 16%.

Same assay, conditions: Hep3B cells, electroporation with 10,000 nM antisense oligonucleotide, approximately 24 hours, primer probe set RTS5062, relative to untreated control cells

Compared with “798654 (k[5mC]*k[5mC]*k[5mC]*dT*dG*d[5mC]*dG*d[5mC]*dG*dG*d[5mC]*dT*d[5mC]*kT*k[5mC]*k[5mC]; antisense) [compound 798654]”, “798655 (kG*kG*k[5mC]*d[5mC]*d[5mC]*dG*d[5mC]*dG*d[5mC]*d[5mC]*d[5mC]*dT*dG*k[5mC]*kG*k[5mC]; antisense) [compound 798655]” is lower in “% inhibition of SMAD7 mRNA expression” value: 23% for the first, 21% for the second.

Compared with “798656 (k[5mC]*kG*k[5mC]*dG*dG*d[5mC]*d[5mC]*d[5mC]*dG*d[5mC]*dG*d[5mC]*d[5mC]*k[5mC]*kT*kG; antisense) [compound 798656]”, “798657 (k[5mC]*k[5mC]*kG*d[5mC]*dG*d[5mC]*dG*dG*d[5mC]*d[5mC]*d[5mC]*dG*d[5mC]*kG*k[5mC]*k[5mC]; antisense) [compound 798657]” is lower in “% inhibition of SMAD7 mRNA expression” value: 10% for the first, 0% for the second.

Going from “798658 (kA*k[5mC]*k[5mC]*d[5mC]*d[5mC]*dG*d[5mC]*dG*d[5mC]*dG*dG*d[5mC]*d[5mC]*k[5mC]*kG*k[5mC]; antisense) [compound 798658]” to “798659 (k[5mC]*k[5mC]*k[5mC]*dA*d[5mC]*d[5mC]*d[5mC]*d[5mC]*dG*d[5mC]*dG*d[5mC]*dG*kG*k[5mC]*k[5mC]; antisense) [compound 798659]”, the “% inhibition of SMAD7 mRNA expression” value falls from 71% to 58%.

Going from “798660 (kT*kG*k[5mC]*d[5mC]*d[5mC]*d[5mC]*dA*d[5mC]*d[5mC]*d[5mC]*d[5mC]*dG*d[5mC]*kG*k[5mC]*kG; antisense) [compound 798660]” to “798661 (kG*kG*k[5mC]*dT*dG*d[5mC]*d[5mC]*d[5mC]*d[5mC]*dA*d[5mC]*d[5mC]*d[5mC]*k[5mC]*kG*k[5mC]; antisense) [compound 798661]”, the “% inhibition of SMAD7 mRNA expression” value rises from 38% to 52%.

With “798663 (kT*kG*k[5mC]*dG*d[5mC]*dT*d[5mC]*d[5mC]*dG*dG*d[5mC]*dT*dG*k[5mC]*k[5mC]*k[5mC]; antisense) [compound 798663]” the “% inhibition of SMAD7 mRNA expression” value was 41%.

Same assay, conditions: Hep3B cells, electroporation, 10,000 nM antisense oligonucleotide, approximately 24 hours, RTS5062, relative to untreated control cells

In the case of “790719 (kG*kG*kA*d[5mC]*dA*dG*dT*d[5mC]*dT*dG*d[5mC]*dT*dG*kT*kG*kG; antisense) [compound 790719]”, the “% inhibition of SMAD7 mRNA expression” value is reported as 86%.

Same assay, conditions: SMAD7 mRNA, Hep3B cells, 10,000 nM antisense oligonucleotide, electroporation, approximately 24 hours, primer probe set RTS5062, relative to untreated control cells

Compared with “790741 (kA*kT*kT*dA*dA*dG*d[5mC]*d[5mC]*d[5mC]*dG*d[5mC]*dT*d[5mC]*kT*k[5mC]*kA; antisense) [compound 790741]”, “790747 (kG*kT*kA*d[5mC]*dA*dA*dT*d[5mC]*dT*d[5mC]*d[5mC]*dT*dG*kG*kA*kA; antisense) [compound 790747]” is lower in “% Inhibition” value: 30% for the first, 8% for the second.

First: 790754 (k[5mC]*kT*kA*dA*dG*d[5mC]*dT*dA*d[5mC]*dT*dT*dG*dG*kT*kT*kT; antisense) [compound 790754]
Second: 790775 (kT*kA*k[5mC]*dA*dA*dG*dG*dT*dG*dA*dA*dA*dG*kT*kT*kA; antisense) [compound 790775]
The “% Inhibition” value of the first is higher: 38% for the first, 7% for the second.

Going from “790791 (kG*kG*kG*d[5mC]*dA*d[5mC]*dA*d[5mC]*d[5mC]*dA*d[5mC]*d[5mC]*dT*kG*k[5mC]*k[5mC]; antisense) [compound 790791]” to “790855 (kA*k[5mC]*k[5mC]*dT*dT*dT*dT*d[5mC]*d[5mC]*dG*dG*dT*dA*kT*kT*kT; antisense) [compound 790855]”, the “% Inhibition” value rises from 7% to 40%.

Going from “790871 (kT*kG*kT*dT*dA*dG*dG*dA*d[5mC]*d[5mC]*dT*dG*dG*kG*kA*kA; antisense) [compound 790871]” to “790874 (k[5mC]*k[5mC]*kG*dG*dA*dA*dG*dT*d[5mC]*dT*dT*dG*dT*kA*kT*kT; antisense) [compound 790874]”, the “% Inhibition” value falls from 39% to 0%.
